This assay addresses T1, Pituitary adenylate cyclase-activating polypeptide (Homo sapiens, UniProt P18509).
T1 sequence (P18509 whole entry): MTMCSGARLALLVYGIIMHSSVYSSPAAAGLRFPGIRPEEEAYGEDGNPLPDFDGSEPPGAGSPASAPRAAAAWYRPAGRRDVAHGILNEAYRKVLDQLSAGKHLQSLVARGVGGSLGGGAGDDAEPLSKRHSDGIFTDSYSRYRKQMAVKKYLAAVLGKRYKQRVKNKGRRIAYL

By Ki is commonly meant a dissociation constant, usually derived from enzyme kinetics or from competition with a known ligand.

Non-standard residues stand in square brackets, D forms with d. Residues, ends and D or L forms follow the SMILES beside them. ξ: configuration not given here. Ile(3ξ) = CCC(C)[C@H](N)C(=O)O

`CCC(C)[C@H](NC(=O)CNC(=O)[C@H](CC(=O)O)NC(=O)[C@H](Cc1ccccc1)NC(=O)[C@@H](N)Cc1cnc[nH]1)C(=O)N[C@@H](Cc1ccccc1)C(=O)N[C@H](C(=O)N[C@@H](CC(=O)O)C(=O)N[C@@H](CO)C(=O)N[C@@H](Cc1ccc(O)cc1)C(=O)N[C@@H](CO)C(=O)N[C@@H](CCCN=C(N)N)C(=O)N[C@@H](Cc1ccc(O)cc1)C(=O)N[C@@H](CCCN=C(N)N)C(=O)N[C@@H](CCCCN)C(=O)N[C@@H](CCC(N)=O)C(=O)N[C@@H](CCSC)C(=O)N[C@@H](C)C(=O)N[C@H](C(=O)N[C@@H](CCCCN)C(=O)N[C@@H](CCCCN)C(=O)N[C@@H](Cc1ccc(O)cc1)C(=O)N[C@@H](CC(C)C)C(=O)N[C@@H](C)C(=O)N[C@@H](C)C(=O)N[C@H](C(=O)N[C@@H](CC(C)C)C(=O)NCC(=O)N[C@@H](CCCCN)C(=O)N[C@@H](CCCN=C(N)N)C(=O)N[C@@H](Cc1ccc(O)cc1)C(=O)N[C@@H](CCCCN)C(=O)N[C@@H](CCC(N)=O)C(=O)N[C@@H](CCCN=C(N)N)C(=O)N[C@H](C(=O)N[C@@H](CCCCN)C(=O)N[C@@H](CC(N)=O)C(=O)N[C@@H](CCCCN)C(N)=O)C(C)C)C(C)C)C(C)C)[C@@H](C)O` (some centres undefined) [[Phe2]PACAP(1-38)] (H-HFDG[Ile(3ξ)]FTDSYSRYRKQMAVKKYLAAVLGKRYKQRVKNK-NH2): the Ki was 10 nM.
The compound “H-FTDSYSRYRKQMAVKKYLAAVL-NH2 [PACAP(5-27)]” had a Ki of 60 nM.
Compound “H-TDSYSRYRKQMAVKKYLAAVL-NH2 [PACAP(6-27)]” came in with a Ki of 200 nM.
The compound “H-TDSYSRYRKQMAVKKYLAAVLGKRYKQRVKNK-NH2 [PACAP(7-38)]” yielded a Ki of 8 nM.

The values above are taken from BindingDB's records for doi:10.1111/j.1432-1033.1992.tb17043.x (Universit&Eacute, 1992).
